Source: patent US12180187B2, “1-phenyl-5-azinylpyrazolyl-3-oxyalkyl acids and their use for controlling unwanted plant growth” (BAYER AKTIENGESELLSCHAFT, priority 2019, dated 2024)

Experiments:
ALOMY [1] = assay: Pre-emergence action against ALOMY, 1280 g/ha; assay type: in vivo, Alopecurus myosuroides; settings: visual scoring after about 3 weeks vs untreated controls, 100% = plants have died, 0% = like control plants
Summary of the method: (§1)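 Each pot was doubly sown in sandy loam and covered, then its soil surface was treated with compound suspension or emulsion containing 0.5% additive at 600 L/ha water. Plants grew in a greenhouse; effect was rated visually as percentages versus controls after about 3 weeks.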

POAAN [2] = assay: Post-emergence action against POAAN, 1.28 kg/ha; assay type: in vivo, Poa annua; settings: dosage 1280 g/ha, visual rating about 3 weeks after treatment vs untreated controls
Summary of the method: (§2)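 Spray at one-leaf stage with WP/EC + 0.5% additive, 600 L water/ha. Greenhouse, optimum conditions, ~3 wk. Visual % control vs untreated; 0 = no effect, 100 = dead.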

DIGSA [3] = assay: Pre-emergence action against DIGSA, 1280 g/ha; assay type: in vivo, Digitaria sanguinalis; settings: visual scoring after about 3 weeks vs untreated controls, 100% = plants have died, 0% = like control plants
Summary of the method: as §1

POLCO = assay: Pre-emergence action at 320 g/ha against POLCO; assay type: in vivo, Fallopia convolvulus (Polygonum convolvulus); settings: visual scoring after about 3 weeks vs untreated controls
Summary of the method: (§3)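 Visual scoring in percent against untreated controls, about 3 weeks after treatment, where 100% means dead plants and 0% means no difference. Compounds were applied as aqueous suspension or emulsion (WP or EC, plus 0.5% additive) onto soil covering freshly sown seeds, at 600 l/ha water.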

ECHCG [4] = assay: Post-emergence action against ECHCG, 1.28 kg/ha; assay type: in vivo, Echinochloa crus-galli; settings: dosage 1280 g/ha, visual rating about 3 weeks after treatment vs untreated controls
Summary of the method: as §2

AMARE [5] = assay: Pre-emergence action at 320 g/ha against AMARE; assay type: in vivo, Amaranthus retroflexus; settings: visual scoring after about 3 weeks vs untreated controls
Summary of the method: as §3

MATIN [6] = assay: Post-emergence action against MATIN, 1.28 kg/ha; assay type: in vivo, Tripleurospermum inodorum (Matricaria inodora); settings: dosage 1280 g/ha, visual rating about 3 weeks after treatment vs untreated controls (100% = plants died)
Summary of the method: as §2

VIOTR = assay: Pre-emergence action at 320 g/ha against VIOTR; assay type: in vivo, Viola tricolor; settings: dosage 320 g/ha
Summary of the method: as §3

POAAN [7] = assay: Pre-emergence action against POAAN, 1280 g/ha; assay type: in vivo, Poa annua; settings: visual scoring after about 3 weeks vs untreated controls, 100% = plants have died, 0% = like control plants
Summary of the method: as §1

LOLRI [8] = assay: Post-emergence action against LOLRI, 1.28 kg/ha; assay type: in vivo, Lolium rigidum; settings: dosage 1280 g/ha, visual rating about 3 weeks after treatment vs untreated controls
Summary of the method: as §2

LOLRI [9] = assay: Pre-emergence action against LOLRI, 1280 g/ha; assay type: in vivo, Lolium rigidum; settings: visual scoring after about 3 weeks vs untreated controls, 100% = plants have died, 0% = like control plants
Summary of the method: as §1

VERPE [10] = assay: Pre-emergence action at 320 g/ha against VERPE; assay type: in vivo, Veronica persica; settings: visual scoring after about 3 weeks vs untreated controls
Summary of the method: as §3

STEME [11] = assay: Post-emergence action against STEME, 1.28 kg/ha; assay type: in vivo, Stellaria media; settings: dosage 1280 g/ha, visual rating about 3 weeks after treatment vs untreated controls (100% = plants died)
Summary of the method: as §2

ALOMY [12] = assay: Post-emergence action against ALOMY, 1.28 kg/ha; assay type: in vivo, Alopecurus myosuroides; settings: dosage 1280 g/ha, visual rating about 3 weeks after treatment vs untreated controls
Summary of the method: as §2

MATIN [13] = assay: Pre-emergence action against MATIN, 1280 g/ha; assay type: in vivo, Tripleurospermum inodorum (Matricaria inodora); settings: scored visually after about 3 weeks vs untreated controls (100% = plants have died)
Summary of the method: as §1

ABUTH [14] = assay: Post-emergence action against ABUTH, 1.28 kg/ha; assay type: in vivo, Abutilon theophrasti; settings: dosage 1280 g/ha, visual rating about 3 weeks after treatment vs untreated controls (100% = plants died)
Summary of the method: as §2

ECHCG [15] = assay: Pre-emergence action against ECHCG, 1280 g/ha; assay type: in vivo, Echinochloa crus-galli; settings: visual scoring after about 3 weeks vs untreated controls, 100% = plants have died, 0% = like control plants
Summary of the method: as §1

AMARE [16] = assay: Pre-emergence action against AMARE, 1280 g/ha; assay type: in vivo, Amaranthus retroflexus; settings: scored visually after about 3 weeks vs untreated controls (100% = plants have died)
Summary of the method: as §1

SETVI [17] = assay: Post-emergence action against SETVI, 1.28 kg/ha; assay type: in vivo, Setaria viridis; settings: dosage 1280 g/ha, visual rating about 3 weeks after treatment vs untreated controls
Summary of the method: as §2

AVEFA = assay: Pre-emergence action at 320 g/ha against AVEFA; assay type: in vivo; settings: visual scoring after about 3 weeks vs untreated controls
Summary of the method: as §3

SETVI [18] = assay: Pre-emergence action against SETVI, 1280 g/ha; assay type: in vivo, Setaria viridis; settings: visual scoring after about 3 weeks vs untreated controls, 100% = plants have died, 0% = like control plants
Summary of the method: as §1

KCHSC [19] = assay: Post-emergence action against KCHSC, 1.28 kg/ha; assay type: in vivo, Bassia scoparia; settings: dosage 1280 g/ha, visual rating about 3 weeks after treatment vs untreated controls (100% = plants died)
Summary of the method: as §2

SETVI [20] = assay: Pre-emergence action at 320 g/ha against SETVI; assay type: in vivo, Setaria viridis; settings: visual scoring after about 3 weeks vs untreated controls
Summary of the method: as §3

ABUTH [21] = assay: Pre-emergence action against ABUTH, 1280 g/ha; assay type: in vivo, Abutilon theophrasti; settings: scored visually after about 3 weeks vs untreated controls (100% = plants have died)
Summary of the method: as §1

ALOMY [22] = assay: Pre-emergence action at 320 g/ha against ALOMY; assay type: in vivo, Alopecurus myosuroides; settings: scored visually after about 3 weeks vs untreated controls (100% = plants have died)
Summary of the method: as §3

MATIN [23] = assay: Pre-emergence action at 320 g/ha against MATIN; assay type: in vivo, Tripleurospermum inodorum (Matricaria inodora); settings: visual scoring after about 3 weeks vs untreated controls
Summary of the method: as §3

AMARE [24] = assay: Post-emergence action against AMARE, 1.28 kg/ha; assay type: in vivo, Amaranthus retroflexus; settings: dosage 1280 g/ha, visual rating about 3 weeks after treatment vs untreated controls (100% = plants died)
Summary of the method: as §2

PHBPU = assay: Pre-emergence action at 320 g/ha against PHBPU; assay type: in vivo; settings: visual scoring after about 3 weeks vs untreated controls
Excerpt: b) Seeds of monocotyledonous and dicotyledonous weed plants and crop plants are placed in plastic or organic planting pots and covered with soil. The compounds of the invention, formulated in the form of wettable powders (WP) or as emulsion concentrates (EC), are then applied onto the surface of the covering soil as aqueous suspension or emulsion with addition of 0.5% additive at a water application rate of 600 l/ha (converted). After the treatment, the pots are placed in a greenhouse and kept under good growth conditions for the trial plants. After about 3 weeks, the effect of the preparations is scored visually in comparison with untreated controls as percentages. For example, 100% activity=the plants have died, 0% activity=like control plants. Tables 13 to 26 below show the effects of selected compounds of the general formula (I) on various harmful plants and at an application rate corresponding to 320 g/ha, which were obtained by the experimental procedure mentioned above.

DIGSA [25] = assay: Pre-emergence action at 320 g/ha against DIGSA; assay type: in vivo, Digitaria sanguinalis; settings: visual scoring after about 3 weeks vs untreated controls
Summary of the method: as §3

VERPE [26] = assay: Pre-emergence action against VERPE, 1280 g/ha; assay type: in vivo, Veronica persica; settings: scored visually after about 3 weeks vs untreated controls (100% = plants have died)
Summary of the method: as §1

STEME [27] = assay: Pre-emergence action against STEME, 1280 g/ha; assay type: in vivo, Stellaria media; settings: scored visually after about 3 weeks vs untreated controls (100% = plants have died)
Summary of the method: as §1

DIGSA [28] = assay: Post-emergence action against DIGSA, 1.28 kg/ha; assay type: in vivo, Digitaria sanguinalis; settings: dosage 1280 g/ha, visual rating about 3 weeks after treatment vs untreated controls
Summary of the method: as §2

LOLRI [29] = assay: Pre-emergence action at 320 g/ha against LOLRI; assay type: in vivo, Lolium rigidum; settings: visual scoring after about 3 weeks vs untreated controls
Summary of the method: as §3

ECHGC = assay: Pre-emergence action at 320 g/ha against ECHGC; assay type: in vivo, Echinochloa crus-galli; settings: visual scoring after about 3 weeks vs untreated controls
Summary of the method: as §3

KCHSC [30] = assay: Pre-emergence action against KCHSC, 1280 g/ha; assay type: in vivo, Bassia scoparia; settings: scored visually after about 3 weeks vs untreated controls (100% = plants have died)
Summary of the method: as §1

VERPE [31] = assay: Post-emergence action against VERPE, 1.28 kg/ha; assay type: in vivo, Veronica persica; settings: dosage 1280 g/ha, visual rating about 3 weeks after treatment vs untreated controls (100% = plants died)
Summary of the method: as §2

CSCCOC(=O)COc1nn(-c2ccccc2F)c(-c2ccc(F)nc2)c1Br [VII-124]
100%: Pre-emergence action against ALOMY (ALOMY [1]) | Post-emergence action against POAAN (POAAN [2]) | Pre-emergence action against DIGSA (DIGSA [3]) | Pre-emergence action against POLCO in % (POLCO) | Post-emergence action against ECHCG (ECHCG [4]) | Pre-emergence action against AMARE in % (AMARE [5]) | Post-emergence action against MATIN (MATIN [6]) | Pre-emergence action against VIOTR in % (VIOTR) | Pre-emergence action against POAAN (POAAN [7]) | Post-emergence action against LOLRI (LOLRI [8]) | Pre-emergence action against LOLRI (LOLRI [9]) | Pre-emergence action against VERPE in % (VERPE [10]) | Post-emergence action against STEME (STEME [11]) | Post-emergence action against ALOMY (ALOMY [12]) | Pre-emergence action against MATIN (MATIN [13]) | Pre-emergence action against ECHCG (ECHCG [15]) | Pre-emergence action against AMARE (AMARE [16]) | Pre-emergence action against SETVI (SETVI [18]) | Pre-emergence action against SETVI in % (SETVI [20]) | Pre-emergence action at 320 g/ha against ALOMY in % (ALOMY [22]) | Pre-emergence action against MATIN in % (MATIN [23]) | Pre-emergence action against DIGSA in % (DIGSA [25]) | Pre-emergence action against VERPE (VERPE [26]) | Pre-emergence action against STEME (STEME [27]) | Post-emergence action against DIGSA (DIGSA [28]) | Pre-emergence action against LOLRI in % (LOLRI [29]) | Pre-emergence action against ECHGC in % (ECHGC) | Post-emergence action against VERPE (VERPE [31])
90%: Post-emergence action against ABUTH (ABUTH [14]) | Post-emergence action against SETVI (SETVI [17]) | Pre-emergence action against AVEFA in % (AVEFA) | Post-emergence action against KCHSC (KCHSC [19]) | Pre-emergence action against ABUTH (ABUTH [21]) | Post-emergence action against AMARE (AMARE [24]) | Pre-emergence action against PHBPU in % (PHBPU) | Pre-emergence action against KCHSC (KCHSC [30])
